Here are results for 9 cell lines from the supplement of paper PMC10307832.

What all share (assay): relative viability (nuclei count vs DMSO), 5 days (fraction); higher = more cells survive
Compound in one assay: CCc1cnn2c(NCc3ccc[n+]([O-])c3)cc(N3CCCC[C@H]3CCO)nc12 [Dinaciclib]
A digest of the protocol: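 Acceptance criteria were a control CV below 25% and at least one doubling per plate. Lung cancer cell lines in 1536-well plates got five library-drug doses (not always all listed) √10 apart by pinning and were left 5 days with no medium change. Viability divides treated-well nuclei by vehicle-well nuclei and is the median across plates. Nuclei were counted by MetaXpress from 4× Hoechst images.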

Compound in the assay “Dinaciclib + Trametinib”: CCc1cnn2c(NCc3ccc[n+]([O-])c3)cc(N3CCCC[C@H]3CCO)nc12 [Dinaciclib] + CC(=O)Nc1cccc(-n2c(=O)n(C3CC3)c(=O)c3c(Nc4ccc(I)cc4F)n(C)c(=O)c(C)c32)c1 [Trametinib] (partner 0.02 µM)
The method in brief:
(§1)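 Lung cancer cell lines in 1536-well plates were dosed by pin tool the day after seeding, either with one drug alone or with a fixed anchor-drug dose plus five library-drug doses (not always all listed) in √10 steps. After 5 days, cells were fixed and their nuclei stained in one step (final 0.05% Triton X-100, 1% formaldehyde, 1 ug/ml Hoechst), then counted on 4× images. Relative viability is the nuclei count in treated wells divided by that in vehicle wells. Values are medians of duplicate plates.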

Compound in the assay “Dinaciclib + AZD7762”: CCc1cnn2c(NCc3ccc[n+]([O-])c3)cc(N3CCCC[C@H]3CCO)nc12 [Dinaciclib] + NC(=O)Nc1cc(-c2cccc(F)c2)sc1C(=O)N[C@H]1CCCNC1 [AZD7762] (partner 0.2 µM)
The method in brief: as §1

Compound in the assay “Dinaciclib + Vorinostat”: CCc1cnn2c(NCc3ccc[n+]([O-])c3)cc(N3CCCC[C@H]3CCO)nc12 [Dinaciclib] + O=C(CCCCCCC(=O)Nc1ccccc1)NO [Vorinostat] (partner 1 µM)
A digest of the protocol:
as §1

Compound in the assay “Dinaciclib + Lapatinib”: CCc1cnn2c(NCc3ccc[n+]([O-])c3)cc(N3CCCC[C@H]3CCO)nc12 [Dinaciclib] + CS(=O)(=O)CCNCc1ccc(-c2ccc3ncnc(Nc4ccc(OCc5cccc(F)c5)c(Cl)c4)c3c2)o1 [Lapatinib] (partner 2 µM)
The method in brief: as §1

Take NCI-H522: the relative viability with Dinaciclib (0.009487 µM) is 0.948; in the assay with Dinaciclib (0.03 µM) it was 0.72; in the assay with Dinaciclib (0.09487 µM), 0.353; with Dinaciclib (0.3 µM), 0.296; with Dinaciclib + Trametinib (first compound 0.009487 µM), 0.757; in the assay with Dinaciclib + Trametinib (first compound 0.03 µM) it was 0.795. Besides, the relative viability with Dinaciclib + Trametinib (first compound 0.09487 µM) was determined as 0.255; with Dinaciclib + Trametinib (first compound 0.3 µM) it was 0.251; with Dinaciclib + AZD7762 (first compound 0.009487 µM), 0.899; with Dinaciclib + AZD7762 (first compound 0.03 µM), 0.991; with Dinaciclib + AZD7762 (first compound 0.09487 µM), 0.359; with Dinaciclib + AZD7762 (first compound 0.3 µM) it was 0.211. In addition, the relative viability with Dinaciclib + Vorinostat (first compound 0.009487 µM) was determined as 1.13; with Dinaciclib + Vorinostat (first compound 0.03 µM) it was 0.99; with Dinaciclib + Vorinostat (first compound 0.09487 µM), 0.449; with Dinaciclib + Vorinostat (first compound 0.3 µM), 0.319.

As to NCI-H2342, the relative viability with Dinaciclib (0.009487 µM) was 1.11; with Dinaciclib (0.03 µM) it was 0.696; in the assay with Dinaciclib (0.09487 µM) it was 0.368; with Dinaciclib (0.3 µM), 0.301; with Dinaciclib + Trametinib (first compound 0.009487 µM), 0.82; with Dinaciclib + Trametinib (first compound 0.03 µM), 0.847. Besides, the relative viability came out at 0.343 with Dinaciclib + Trametinib (first compound 0.09487 µM); 0.31 with Dinaciclib + Trametinib (first compound 0.3 µM); 0.627 in the assay with Dinaciclib + AZD7762 (first compound 0.009487 µM); 0.572 with Dinaciclib + AZD7762 (first compound 0.03 µM); 0.206 with Dinaciclib + AZD7762 (first compound 0.09487 µM); 0.225 with Dinaciclib + AZD7762 (first compound 0.3 µM). Also, the relative viability with Dinaciclib + Vorinostat (first compound 0.009487 µM) was determined as 0.75; in the assay with Dinaciclib + Vorinostat (first compound 0.03 µM), 0.685; with Dinaciclib + Vorinostat (first compound 0.09487 µM) it was 0.703; with Dinaciclib + Vorinostat (first compound 0.3 µM), 0.323.

With NCI-H2023, the relative viability was 0.706 with Dinaciclib (0.009487 µM); 0.0772 with Dinaciclib (0.03 µM); 0.0615 with Dinaciclib (0.09487 µM); 0.0696 with Dinaciclib (0.3 µM); 0.382 in the assay with Dinaciclib + Trametinib (first compound 0.009487 µM); 0.078 in the assay with Dinaciclib + Trametinib (first compound 0.03 µM). Also, the relative viability in the assay with Dinaciclib + Trametinib (first compound 0.09487 µM) came to 0.0799; with Dinaciclib + Trametinib (first compound 0.3 µM) it was 0.0821; in the assay with Dinaciclib + Lapatinib (first compound 0.009487 µM), 0.817; in the assay with Dinaciclib + Lapatinib (first compound 0.03 µM), 0.0669; in the assay with Dinaciclib + Lapatinib (first compound 0.09487 µM) it was 0.0655; in the assay with Dinaciclib + Lapatinib (first compound 0.3 µM), 0.0585. Also, the relative viability in the assay with Dinaciclib + Vorinostat (first compound 0.009487 µM) was 0.678; in the assay with Dinaciclib + Vorinostat (first compound 0.03 µM), 0.08; in the assay with Dinaciclib + Vorinostat (first compound 0.09487 µM), 0.0556; with Dinaciclib + Vorinostat (first compound 0.3 µM) it was 0.0518.

As for NCI-H441, the relative viability stood at 1.13 with Dinaciclib (0.009487 µM); 0.162 with Dinaciclib (0.03 µM); 0.146 with Dinaciclib (0.09487 µM); 0.158 with Dinaciclib (0.3 µM); 0.42 in the assay with Dinaciclib + Trametinib (first compound 0.009487 µM); 0.156 with Dinaciclib + Trametinib (first compound 0.03 µM). Moreover, the relative viability in the assay with Dinaciclib + Trametinib (first compound 0.09487 µM) worked out at 0.137; with Dinaciclib + Trametinib (first compound 0.3 µM), 0.114; in the assay with Dinaciclib + AZD7762 (first compound 0.009487 µM), 1.17; in the assay with Dinaciclib + AZD7762 (first compound 0.03 µM) it was 0.758; with Dinaciclib + AZD7762 (first compound 0.09487 µM), 0.141; with Dinaciclib + AZD7762 (first compound 0.3 µM), 0.16. Also, the relative viability with Dinaciclib + Vorinostat (first compound 0.009487 µM) was 1.07; with Dinaciclib + Vorinostat (first compound 0.03 µM) it was 0.34; with Dinaciclib + Vorinostat (first compound 0.09487 µM) it was 0.174; with Dinaciclib + Vorinostat (first compound 0.3 µM) it was 0.131.

With NCI-H2228, the relative viability was determined as 1.21 in the assay with Dinaciclib (0.009487 µM); 0.434 in the assay with Dinaciclib (0.03 µM); 0.123 with Dinaciclib (0.09487 µM); 0.161 with Dinaciclib (0.3 µM); 0.496 with Dinaciclib + Trametinib (first compound 0.009487 µM); 0.11 in the assay with Dinaciclib + Trametinib (first compound 0.03 µM). For the same cell line, the relative viability stood at 0.0915 with Dinaciclib + Trametinib (first compound 0.09487 µM); 0.116 with Dinaciclib + Trametinib (first compound 0.3 µM); 0.764 with Dinaciclib + Lapatinib (first compound 0.009487 µM); 0.112 with Dinaciclib + Lapatinib (first compound 0.03 µM); 0.0806 with Dinaciclib + Lapatinib (first compound 0.09487 µM); 0.11 with Dinaciclib + Lapatinib (first compound 0.3 µM). The relative viability was determined as 0.749 in the assay with Dinaciclib + Vorinostat (first compound 0.009487 µM), 0.213 with Dinaciclib + Vorinostat (first compound 0.03 µM), 0.131 with Dinaciclib + Vorinostat (first compound 0.09487 µM) and 0.136 in the assay with Dinaciclib + Vorinostat (first compound 0.3 µM).

SW 900: the relative viability with Dinaciclib (0.009487 µM) was found to be 0.809; with Dinaciclib (0.03 µM), 0.286; with Dinaciclib (0.09487 µM), 0.119; with Dinaciclib (0.3 µM), 0.133; with Dinaciclib + Trametinib (first compound 0.009487 µM), 0.805; with Dinaciclib + Trametinib (first compound 0.03 µM), 0.477. Moreover, the relative viability worked out at 0.177 with Dinaciclib + Trametinib (first compound 0.09487 µM); 0.155 in the assay with Dinaciclib + Trametinib (first compound 0.3 µM); 0.705 with Dinaciclib + AZD7762 (first compound 0.009487 µM); 0.405 with Dinaciclib + AZD7762 (first compound 0.03 µM); 0.179 with Dinaciclib + AZD7762 (first compound 0.09487 µM); 0.148 with Dinaciclib + AZD7762 (first compound 0.3 µM). The relative viability with Dinaciclib + Vorinostat (first compound 0.009487 µM) is 0.557; in the assay with Dinaciclib + Vorinostat (first compound 0.03 µM), 0.33; with Dinaciclib + Vorinostat (first compound 0.09487 µM) it was 0.171; with Dinaciclib + Vorinostat (first compound 0.3 µM), 0.143.

In the case of NCI-H1792, the relative viability was found to be 1.01 in the assay with Dinaciclib (0.009487 µM); 0.358 with Dinaciclib (0.03 µM); 0.117 with Dinaciclib (0.09487 µM); 0.0792 with Dinaciclib (0.3 µM); 0.432 in the assay with Dinaciclib + Trametinib (first compound 0.009487 µM); 0.361 with Dinaciclib + Trametinib (first compound 0.03 µM). Further, the relative viability with Dinaciclib + Trametinib (first compound 0.09487 µM) amounted to 0.0776; in the assay with Dinaciclib + Trametinib (first compound 0.3 µM), 0.0462; with Dinaciclib + AZD7762 (first compound 0.009487 µM) it was 0.585; with Dinaciclib + AZD7762 (first compound 0.03 µM), 0.0463; with Dinaciclib + AZD7762 (first compound 0.09487 µM) it was 0.032; in the assay with Dinaciclib + AZD7762 (first compound 0.3 µM), 0.0288. Also, the relative viability in the assay with Dinaciclib + Lapatinib (first compound 0.009487 µM) turned out to be 0.848; with Dinaciclib + Lapatinib (first compound 0.03 µM) it was 0.808; with Dinaciclib + Lapatinib (first compound 0.09487 µM), 0.0608; with Dinaciclib + Lapatinib (first compound 0.3 µM), 0.0733.

Consider IA-LM, for which the relative viability in the assay with Dinaciclib (0.009487 µM) came to 0.804; in the assay with Dinaciclib (0.03 µM) it was 0.286; with Dinaciclib (0.09487 µM), 0.0334; with Dinaciclib (0.3 µM) it was 0.0226; with Dinaciclib + Lapatinib (first compound 0.009487 µM) it was 0.73; with Dinaciclib + Lapatinib (first compound 0.03 µM), 0.0584. For the same cell line, the relative viability with Dinaciclib + Lapatinib (first compound 0.09487 µM) stood at 0.053; with Dinaciclib + Lapatinib (first compound 0.3 µM) it was 0.0435; with Dinaciclib + Vorinostat (first compound 0.009487 µM), 0.973; with Dinaciclib + Vorinostat (first compound 0.03 µM), 0.547; with Dinaciclib + Vorinostat (first compound 0.09487 µM), 0.0376; in the assay with Dinaciclib + Vorinostat (first compound 0.3 µM), 0.0379.

Turning to NCI-H1563, the relative viability in the assay with Dinaciclib (0.009487 µM) amounted to 1.25; with Dinaciclib (0.03 µM), 0.552; in the assay with Dinaciclib (0.09487 µM), 0.314; in the assay with Dinaciclib (0.3 µM), 0.286; with Dinaciclib + Lapatinib (first compound 0.009487 µM), 1.24; with Dinaciclib + Lapatinib (first compound 0.03 µM) it was 0.489. Also, the figures for the relative viability in the assay with Dinaciclib + Lapatinib (first compound 0.09487 µM) and with Dinaciclib + Lapatinib (first compound 0.3 µM) were 0.411 and 0.423, respectively.
